Experimental data published in patent US20160101076A1, “Use of Sumoylation Inhibitors for Treating Cancer” (priority 2013, published 2016).
Peptide text beside a SMILES is read from it. * marks the point of attachment. Cbz = O=C(OCc1ccccc1)*

Legend:
[1] = test system: sumoylated TFAP2A in BT549 cells; assay: Sumoylation of TFAP2A in BT549 cells with peroxide / MG-132; assay type: cell-based, human
Procedure: FIG. 15A-15B. Sumoylated TFAP2A in Basal Cells Induced with Peroxide. Sumoylation of TFAP2A was analyzed in the basal cell line BT549 with and without treatment with peroxide. FIG. 15A. BT549 cells co-transfected with vectors for TFAP2A and either SUMO-1, -2 or -3 and treated without or with peroxide, as indicated. […] Experiment in A was performed in the absence of the proteasome inhibitor MG-132. FIG. 15B. Similar experiments performed with MG-132 treatment either without or with peroxide.
Sumoylation in vitro was done using SUMOlink™ SUMO-1 Kit and SUMOlink™ SUMO-2/3 Kit (Carlsbad). SUMO plasmids and pcDNA3.1-TFAP2A or K10R mutant were used for in vitro protein production. MCF-7 were transfected for 48 hours with […] SUMO expressing plasmids (Feng et al., 2013) that were kindly provided by Dr Xiaolu Yang (University of Pennsylvania). As indicated in some experiments, the proteasome inhibitor MG132 was added as described (Chu and Yang, 2011).

FREM2 and RET expression = assay: Estrogen responsiveness of FREM2 expression, Tamoxifen treatment; assay type: cell-based; settings: FIG. 11E

CC(C)C[C@@H](C=O)NC(=O)[C@H](CC(C)C)NC(=O)[C@H](CC(C)C)NC(=O)OCc1ccccc1 [MG-132] (Cbz-Leu-Leu-Leu-aldehyde)
identification of the sumoylated forms of TFAP2A ([1]; BT549 cells, MG-132 treatment without or with peroxide, FIG. 15B): enhanced identification

CC/C(=C(\c1ccccc1)c1ccc(OCCN(C)C)cc1)c1ccccc1 [Tamoxifen]
FREM2 expression (FREM2 and RET expression): not estrogen responsive
RET expression (FREM2 and RET expression): appropriately repressed

OO [peroxide]
sumoylated TFAP2A ([1]; BT549 cells co-transfected with TFAP2A and SUMO-1, -2 or -3, with vs without peroxide, FIG. 15A): Induction
